In patent US11738072B2, “Tumor vaccine and uses thereof” (WestVac Biopharma Co., Ltd., priority 2017, dated 2023):

Legend:
CT26 cells [1] = experiment: CT26 cell death test by PI-AnnexinV (fluorescence microscope); assay type: cell-based, mouse; settings: CT26, 24 h
Excerpt: (1) Experimental method: same as 1.

A549 cells [2] = experiment: A549 cell death test by PI-AnnexinV (fluorescence microscope); assay type: cell-based; settings: A549, 24 h; complex mass ratio 1:6
Experimental: A549 cells in the logarithmic growth phase were prepared into single cell suspension, inoculated into a 6-well plate as per approximately 1×10^5 cells per well. Then, 2 ml of medium was added to each well and cultured in a 5% CO2 incubator at 37° C. for 24-36 h.
a. 5 mg/ml of pMVA-1 plasmid vector solution was added to 100 μl of 1640 serum-free medium for preparing a pMVA-1 plasmid vector control group;
b. 1 mg/ml of DOTAP cationic lipid was dissolved in 100 μl of 1640 serum-free medium for preparing a DOTAP cationic lipid control group;
c. the pMVA-1/DOTAP complex with a mass ratio of 1:6 prepared in Example 5 was dissolved in 100 μl of 1640 serum-free medium for preparing a pMVA-1/DOTAP complex experimental group.
Some of the medium was pipetted from the 6-well plate in Step (1) until the medium in each well reached 900 μl. The pMVA-1/DOTAP complex (pMVA-DOTAP) (prepared in Step (2)) of the experimental group as well as the pMVA-1 plasmid vector (PMVA) and DOTAP cationic lipid (DOTAP) of the control group was added to A549 cells cultured in Step (1) respectively to make the total volume of 1 ml. At the same time, a blank control group containing only medium was made, and incubated in a 5% of CO2 incubator at 37° C. for 24 h. […]
The cells stained with PI and Annexin V in Step (4) were washed once with PBS and observed under a fluorescence microscope. […]

A549 cells [3] = experiment: A549 cell death test by flow cytometry; assay type: cell-based; settings: A549, 24 h, compared with blank control group
Experimental: The method was the same as that in 1(1).
The method was the same as that in 1(2), wherein, the concentration of DOTAP cationic lipid was 4 μg/ml, 8 μg/ml, 16 μg/ml and 32 μg/ml respectively, and the concentration of the pMVA-1/DOTAP complex was expressed by that of DOTAP cationic lipid.
The method was the same as that in 1(3).
a. A549 cells treated by different samples in the Step (3) were washed twice with cold PBS, and resuspended with 1× binding buffer for preparing a cell suspension with a density of 1×10^6 cells/ml;
b. 100 μl of A549 cell suspension prepared in Step a was pipetted into the flow test tube;
c. 5 μl of FITC Annexin V and 5 μl of PI were added to the flow test tube in Step b, mixed gently, and incubated at room temperature for 15 min in the dark;
d. 400 μl of 1× binding buffer was added to the flow test tube in Step c and tested by flow cytometry;

[4] = test system: mouse sarcoma cell line S180; experiment: Subcutaneous S180 sarcoma model in mice; assay type: in vivo, KM mice; settings: 2.5 μg pMVA-1 and/or 25 μg DOTAP sc every 3 days x5; 21 days after inoculation
Experimental: KM mice aged 6-8 weeks were raised. The mouse sarcoma cell line S180 cultured to the logarithmic growth phase was prepared into a cell suspension, and mouse subcutaneous tumor was modeled by subcutaneous injection in the right axilla of each mouse. The number of cells injected into each mouse was 1×10^7, and the injection system was 200 μl for each mouse.
On the 5th day after inoculation of S180 sarcoma cells, when the tumor could be palpated, 40 tumor-bearing mice were randomly divided into 4 groups according to Table 12: i.e. negative control group (NS), DOTAP control group, pMVA-1 control group, and treatment group pMVA-1/DOTAP group. Then, the mice were subcutaneously administrated according to Table 12: 2.5 μg of plasmid pMVA-1 for each mouse in the pMVA-1 control group; 25 μg of DOTAP for each mouse in DOTAP control group; 2.5 μg of DNA and 25 μg of DOTAP for each mouse in the treatment group of the pMVA-1/DOTAP complex group; that is, the mass ratio of plasmid DNA to DOTAP was 1:10. After that, they were administrated every three days for a total of 5 times. The mice were killed and the tumor-free rate of the mice was counted 21 days after inoculation of the tumor.

[5] = test system: mouse cervical cancer cell line U14; experiment: Mice U14 subcutaneous model, complex combined with chemotherapy; assay type: in vivo, C57 female mice; settings: U14 sc
Experimental: C57 female mice aged 6-8 weeks were raised. The mouse cervical cancer cell line U14 cultured to the logarithmic growth phase was prepared into a cell suspension and the cell density was 2×10^7/ml. Experimental animals were subcutaneously injected on the right back, with an injection system of 100 μl per mouse. When the tumor could be palpated (tumor volume is about 4 mm×4 mm×3 mm, i.e. the 5th day after inoculation), the mice were randomly divided into 6 groups, and administrated every 3 days for a total of 8 times according to the grouping and treatment scheme in Table 16. The tumor volume was measured every three days. After administration for 8 times, the mice were killed and subcutaneous tumors were dissected for examination.
Wherein, the administration volume is 100 μl per mouse, DDP is intraperitoneally administrated once a week. DDP is Cisplatin and LP is pMVA-1/DOTAP complex.

CT26 cells [6] = experiment: Mitochondrial membrane potential by TMRM, flow cytometry; assay type: cell-based, mouse; settings: CT26, 15-24 h
Experimental: (§1) (1) Inoculation of tumor cells in plates: A549 cells and CT26 cells in the logarithmic growth phase were prepared into a cell suspension respectively, inoculated into a 6-well plate as per 1×10^5 cells/well, 2 ml of medium was added to each well, and cultured overnight in a 5% CO2 incubator at 37° C.
(§2) (2) Different samples added to act on tumor cells: the pMVA-1 plasmid, the DOTAP cationic lipid and the pMVA-1/DOTAP complex were added to the tumor cells cultured in Step (1) respectively, and incubated at 37° C. for 15 h, 18 h, 21 h and 24 h.
(§3) (3) Preparation of TMRM dyeing working fluid (made by Life Technologies): the TMRM mother liquor was diluted with PBS at a ratio of 1:100000 to obtain the TMRM dyeing working fluid. […]
(§4) (5) The tumor cells in Step (4) were collected and treated with different samples for different times, and the tumor cells with mitochondrial membrane potential changes were analyzed by flow cytometry.
(§5) As a potentiometric fluorescence probe, tetramethylrhodamine methyl ester (TMRM) entered the cells and was cleaved by cell lactonase to produce tetramethylrhodamine, indicating strong fluorescence after they had entered mitochondria. […] Therefore, the open state of mitochondrial membrane channel pores can be verified by testing the changes of fluorescence intensity in mitochondria of tumor cells.

A549 cells [7] = experiment: as above; assay type: cell-based; settings: A549, 15-24 h
Experimental: as §1, §2, §3, §4, §5

SMILES: CCCCCCCC/C=C\CCCCCCCC(=O)OCC(C[N+](C)(C)C)OC(=O)CCCCCCC/C=C\CCCCCCCC (stereo not shown) [DOTAP, 1,2-dioleoyl-3-trimethylammonium-propane]
- PI-positive and AnnexinV-positive cells (CT26 cells [1]): did not indicate obvious PI uptake and obvious AnnexinV-labeled positive cells
- PI-positive and AnnexinV-positive cells (A549 cells [2]): did not indicate obvious PI uptake and AnnexinV-labeled positive cells
- Annexin-V single positive, PI single positive and PI/Annexin-V double positive cells (PI uptake and Annexin-V) (A549 cells [3]): did not increase significantly
- tumor-free rate of mice [4]: 20%
- lymphocyte infiltration in tumor tissue [5]: less common
- mitochondrial membrane potential (CT26 cells [6]): did not change significantly
- mitochondrial membrane potential (A549 cells [7]): did not change significantly
